Test results from PMC8758724, “Molecular mechanism of agonism and inverse agonism in ghrelin receptor” (Nature Communications, 2022).
“And” between values parts separate entries of the source, which are not always exact repeats. Identical values can stand only once. “Also recorded” adds a separate entry of the source. No end group written: not given here. *: point of attachment. Octanoyl = CCCCCCCC(=O)*

System: ghrelin receptor mutants
Assay: NanoBiT-G-protein dissociation, ghrelin receptor mutants, HEK293T cells, Gαio-LgBiT/Gγ-SmBiT, 3–5 min
Assay type: cell-based, human
Settings: for ΔpEC50 (from the WT): single replicates
Procedure: Bars represent differences in calculated potency (pEC50) of ghrelin for mutations relative to the WT ghrelin receptor. Data are colored according to the extent of the effect. […], **P < 0.01 and ***P < 0.001. ns no significant difference, nd not detected. All data were analyzed by one-way analysis of variance (ANOVA) followed by Dunnett’s multiple comparison test, compared with the response of WT (P = 0.002, P = 0.002, P = 0.015, P < 0.001, P < 0.001, P = 0.732, P < 0.001, P = 0.843, P = 0.012, P < 0.001, P = 0.003, P < 0.001, P < 0.001 and P < 0.001 from left to right). […] See also Supplementary Figs. 6 and 7. d Detailed interaction of the octanoyl group of Ser^+3 with the key residues from cavity II and salt bridges between E124^3.33 and R283^6.55 are clearly observed in the ghrelin-bound structure.
For cryo-EM constructs, the full-length of wild-type human ghrelin receptor was subcloned into pFastBac1 vector with an N-terminal FLAG tag and C-terminal 10×His tag. We used the NanoBiT tethering strategy, in which the C-terminus of the ghrelin receptor was directly attached to the LgBiT subunit followed by a TEV protease cleavage site and a double MBP tag. Gβ1 was fused with a C-terminal HiBiT, together with Gγ2 were cloned into pFastBac dual vector. An engineered human Gαo1 with Gαo1 H domain deletion, named miniGαo1 was cloned into pFastBac1 according to published literature. The ghrelin-induced ghrelin receptor activity was measured by NanoBiT-G-protein dissociation assay using a chimeric Gαio protein according to the previous publication except for replacement Gαqo with Gαio[54]. The Gαio were generated by replacing the six amino acids of the C-terminal of Gαi with those from GαoA1. Other constructs including the full-length and various site-directed mutagenesis human ghrelin receptors were cloned into pcDNA3.1 vector for NanoBiT-G-protein dissociation assay. Ghrelin receptor, miniGαo1, and Gβ1γ2 were co-expressed in Sf9 insect cells (Expression System) using the Bac-to-Bac baculovirus expression system (ThermoFisher). The cell pellets were collected by centrifugation 48 h post infection and stored at −80 °C until use.
G-protein activation was detected by a NanoBiT-G-protein dissociation assay. In brief, HEK293T cells were plated in each well of a six-well plate at a concentration of 0.3 million/ml (2 mL per well). Plasmid transfection was performed with a mixture of 400 ng Gαio-LgBiT, 500 ng Gγ-SmBiT, 500 ng Gβ, 600 ng ghrelin receptor by Lipofectamine 2000 (ThermoFisher Scientific) in 200 μL of Opti-MEM (Gibco). After 1 day of transfection, cells in the six-well plate were digested and resuspended in complete medium DMEM (5% FBS, 1% antibiotic) and plated in a 96-well flat-bottomed white microplate. After 24 h, the cells were washed twice with D-PBS and incubated in 40 μL of 5 μM coelenterazine 400a (Maokangbio) solution diluted 0.01% BSA and 5 mM HEPES (pH 7.5)-containing HBSS (assay buffer) for 1 h at room temperature. Baseline luminescence was measured using a luminescent microplate reader (Tecan). Ghrelin (5×, diluted in the assay buffer) was added to the cells (10 μL) and incubated for 3–5 min at room temperature before the second measurement. The ligand-induced signal ratio was normalized to the baseline luminescence and fold-change signals over vehicle treatment were used to show G-protein dissociation response.

## ghrelin: endogenous agonist, 28-amino acid peptide with octanoyl modification at the side chain of Ser+3 (GSS(Octanoyl)FLSPEHQRVQQRKESKKPPAKLQPR; UniProt Q9UBU3 24-51, looked up)
E124A
  ΔpEC50 (from the WT): -1.682 and -1.692 and -1.769
E124^3.33A
  ghrelin-induced activation, effect of mutation: almost abolished the activity of the ghrelin receptor
E124^3.33A, listed as ghrelin peptide
  ghrelin-induced activation, effect of mutation: remarkably reduced the activation potency
F38A
  ΔpEC50 (from the WT): -0.347 and -0.237 and -0.393
F279^6.51A
  ghrelin-induced activation, effect of mutation: decreased the activation potency; also recorded: almost abolished the activity of the ghrelin receptor
F286A
  ΔpEC50 (from the WT): -1.001 and -0.994 and -1.053
F286^6.58A
  ghrelin-induced activation, effect of mutation: decreased the receptor activation
F290A
  ΔpEC50 (from the WT): -0.357 and -0.309 and -0.272
F309A
  ΔpEC50 (from the WT): -0.421 and -0.648 and -0.344
F309^7.39 mutant
  ghrelin-induced activation, effect of mutation: impaired ghrelin-induced G-protein signaling
F312^7.42A
  ghrelin-induced activation, effect of mutation: decreased the activation potency; also recorded: impaired ghrelin-induced G-protein signaling
I178A
  ΔpEC50 (from the WT): -0.256 and -0.542 and -0.472
I178^4.60A
  ghrelin-induced activation, effect of mutation: decreased the receptor activation
L181A
  ΔpEC50 (from the WT): -0.146 and -0.068 and -0.114
L210A
  ΔpEC50 (from the WT): -0.704 and -0.734 and -0.866
L210^5.36A
  ghrelin-induced activation, effect of mutation: decreased the receptor activation
M213A
  ΔpEC50 (from the WT): -0.105 and -0.084 and -0.1
N305A
  ΔpEC50 (from the WT): -0.736 and -0.893 and -0.758
N305^7.35A
  ghrelin-induced activation, effect of mutation: remarkably reduced the activation potency
Q302A
  ΔpEC50 (from the WT): -0.891 and -1.104 and -1.015
Q302^7.32 mutant
  ghrelin-induced activation, effect of mutation: impaired ghrelin-induced G-protein signaling
R102A
  ΔpEC50 (from the WT): -0.473 and -0.141 and -0.326
R283^6.55A
  ghrelin-induced activation, effect of mutation: almost abolished the activity of the ghrelin receptor
R283^6.55A, listed as ghrelin peptide
  ghrelin-induced activation, effect of mutation: almost abolished the efficacy
S123A
  ΔpEC50 (from the WT): -0.29 and -0.222 and -0.285
V214A
  ΔpEC50 (from the WT): -0.199 and -0.412 and -0.206
W276^6.48A
  ghrelin-induced activation, effect of mutation: decreased the activation potency; also recorded: almost abolished the activity of the ghrelin receptor
Y106A
  ΔpEC50 (from the WT): -0.423 and -0.136 and -0.417
